# Values joined by “and” are separate entries in the source; they are usually repeats but may differ in a detail not shown here. Equal values may be shown once.
# Assay: In vivo toxicity studies (body and organ weights, hematology, clinical chemistry, histopathology)
# Conditions: for CHOL, % ChVh / Ca, % ChVh / Cl, % ChVh / GLUC, % ChVh / K, % ChVh / Na, % ChVh / Na/K, % ChVh / P, % ChVh / CHOL, Mean / Ca, Mean / Cl, Mean / GLUC, Mean / K, Mean / Na, Mean / P, Mean: 0.2 mg/kg Female
# Experimental: Toxicity studies. Eight week-old C57Bl/6NTac female mice were randomly assigned to either control or treatment groups. Each treatment group received one daily dose of test article through i.p. injection over 5 consecutive days. Toxicity was monitored by weight loss and daily clinical observation for the 14 days following test article administration. 24 hours after the last test article administration 4 mice in each group were sacrificed and clinical chemistry, hematology and tissue specific histopathology were done at autopsy. The remaining mice (n=2 per group) were kept under observation for an additional 13 days; at that point all mice were sacrificed and clinical chemistry, hematology and tissue specific histopathology were done at time of autopsy.
# D) KOPT-K1 xenograft studies.
# [1] = 0.2 mg/kg, female, Day 5, % change of mean vs vehicle
# [2] = 0.2 mg/kg, female, Day 5, fold change of mean vs vehicle
# [3] = 0.2 mg/kg, female, Day 5, group mean
# [4] = 0.2 mg/kg, female, Day 5, individual animals
substance,measurement,setting,value
(±)-CR-31-B,"CHOL, % ChVh","Day 5, change vs vehicle",0.0%
same,"Ca, % ChVh","Day 5, change vs vehicle",2.2%
same,"Cl, % ChVh","Day 5, change vs vehicle",0.6%
same,"GLUC, % ChVh","Day 5, change vs vehicle",1.8%
same,"K, % ChVh","Day 5, change vs vehicle",−4.5%
same,"Na, % ChVh","Day 5, change vs vehicle",−0.2%
same,"Na/K, % ChVh","Day 5, change vs vehicle",1.4%
same,"P, % ChVh","Day 5, change vs vehicle",−14.6%
same,"CHOL, Mean","Day 5, group mean, N 4",66.0 mg/dL
same,"Ca, Mean","Day 5, group mean, N 4",9.1 mg/dL
same,"Cl, Mean","Day 5, group mean, N 4",114.0 mEq/L
same,"GLUC, Mean","Day 5, group mean, N 4",297.3 mg/dL
same,"K, Mean","Day 5, group mean, N 4",4.2 mEq/L
same,"Na, Mean","Day 5, group mean, N 4",149.0 mEq/L
same,"P, Mean","Day 5, group mean, N 4",7.0 mg/dL
same,"CHOL, % ChVh","Day 19, change vs vehicle",−2.3%
same,"Ca, % ChVh","Day 19, change vs vehicle",−3.2%
same,"Cl, % ChVh","Day 19, change vs vehicle",−1.3%
same,"GLUC, % ChVh","Day 19, change vs vehicle",−7.9%
same,"K, % ChVh","Day 19, change vs vehicle",−9.5%
same,"Na, % ChVh","Day 19, change vs vehicle",0.0%
same,"Na/K, % ChVh","Day 19, change vs vehicle",12.9%
same,"P, % ChVh","Day 19, change vs vehicle",50.0%
same,"CHOL, Mean","Day 19, group mean, N 2",65.0 mg/dL
same,"Ca, Mean","Day 19, group mean, N 2",9.2 mg/dL
same,"Cl, Mean","Day 19, group mean, N 2",114.5 mEq/L
same,"GLUC, Mean","Day 19, group mean, N 2",240.5 mg/dL
same,"K, Mean","Day 19, group mean, N 2",3.8 mEq/L
same,"Na, Mean","Day 19, group mean, N 2",148.0 mEq/L
same,"P, Mean","Day 19, group mean, N 2",10.2 mg/dL
same,ALB % ChVh,[1],3.3%
same,BASO % % ChVh,[1],−72.7%
same,BASO (K/uL) % ChVh,[1],−100.0%
same,BUN % ChVh,[1],3.0%
same,Body Weight % ChVh,[1],−3.8%
same,CRTN % ChVh,[1],11.1%
same,EOS % % ChVh,[1],−70.0%
same,EOS (K/uL) % ChVh,[1],0.0%
same,GLOB % ChVh,[1],5.9%
same,HCT % % ChVh,[1],3.4%
same,HGB % ChVh,[1],4.4%
same,LYM % % ChVh,[1],−14.6%
same,LYM (K/uL) % ChVh,[1],−21.2%
same,Left Kidney (% body wt) % ChVh,[1],−10.5%
same,Left Kidney (gm) % ChVh,[1],−12.5%
same,Liver (% body wt) % ChVh,[1],2.1%
same,Liver (gm) % ChVh,[1],−1.6%
same,MCH % ChVh,[1],2.5%
same,MCHC % ChVh,[1],0.9%
same,MCV % ChVh,[1],1.4%
same,MONO % % ChVh,[1],21.2%
same,MONO (K/uL) % ChVh,[1],8.3%
same,MPV % ChVh,[1],−5.6%
same,NEUT % % ChVh,[1],97.8%
same,NEUT (K/uL) % ChVh,[1],87.2%
same,PLT % ChVh,[1],−29.0%
same,RBC % ChVh,[1],1.9%
same,RDW % % ChVh,[1],−0.6%
same,Right Kidney (% body wt) % ChVh,[1],−11.6%
same,Right Kidney (gm) % ChVh,[1],−15.4%
same,Spleen (% body wt) % ChVh,[1],17.6%
same,Spleen (gm) % ChVh,[1],13.6%
same,TBIL % ChVh,[1],0.0%
same,TP % ChVh,[1],4.3%
same,WBC % ChVh,[1],−7.7%
same,ALP FoldChVh,[2],1.0
same,ALT FoldChVh,[2],1.3
same,AST FoldChVh,[2],1.2
same,ALB,[3],3.1 g/dL
same,ALP,[3],124.3 U/L
same,ALT,[3],25.0 U/L
same,AST,[3],41.3 U/L
same,BASO,[3],0.00 K/uL
same,BASO %,[3],0.03%
same,BUN,[3],27.3 mg/d L
same,Body Weight,[3],16.680 gm
same,CRTN,[3],0.20 mg/dL
same,EOS,[3],0.01 K/uL
same,EOS %,[3],0.06%
same,GGT,[3],0.0 U/L
same,GLOB,[3],1.8 g/dL
same,HCT %,[3],45.6%
same,HGB,[3],13.7 g/dL
same,LYM,[3],4.31 K/uL
same,LYM %,[3],72.97%
same,MCH,[3],15.3 pg
same,MCHC,[3],30.0 g/dL
same,MCV,[3],50.9 fL
same,MONO,[3],0.13 K/uL
same,MONO %,[3],2.17%
same,MPV,[3],4.3 fL
same,NEUT,[3],1.46 K/uL
same,NEUT %,[3],24.77%
same,PLT,[3],725.8 K/uL
same,RBC,[3],8.96 M/uL
same,RDW %,[3],15.8%
same,TBIL,[3],0.18 mg/d L
same,TP,[3],4.9 g/dL
same,WBC,[3],5.91 K/uL
same,ALB,[4],3.3 g/dL and 3.0 g/dL and 2.9 g/dL and 3.1 g/dL
same,ALP,[4],116 U/L and 114 U/L and 123 U/L and 144 U/L
same,ALT,[4],26 U/L and 20 U/L (2×) and 34 U/L
same,AST,[4],51 U/L and 35 U/L (2×) and 44 U/L
same,BASO,[4],0.00 K/uL
same,BASO %,[4],0.07% and 0.04% and 0.00% (2×)
same,BUN,[4],27 mg/d L (2×) and 26 mg/d L and 29 mg/d L
same,Body Weight,[4],15.962 gm and 17.217 gm and 17.463 gm and 16.078 gm
same,CHOL,[4],68 mg/dL and 66 mg/dL (2×) and 64 mg/dL
same,CRTN,[4],0.2 mg/dL
same,Ca,[4],8.9 mg/dL and 9.0 mg/dL and 9.3 mg/dL (2×)
same,Cl,[4],116 mEq/L and 113 mEq/L (2×) and 114 mEq/L
same,EOS,[4],0.00 K/uL (2×) and 0.01 K/uL (2×)
same,EOS %,[4],0.01% and 0.14% and 0.00% and 0.10%
same,GGT,[4],0 U/L
same,GLOB,[4],1.8 g/dL (3×) and 1.9 g/dL
same,GLUC,[4],270 mg/dL and 335 mg/dL and 261 mg/dL and 323 mg/dL
same,HCT %,[4],48.3% and 45.1% and 43.9% and 45.0%
same,HGB,[4],14.3 g/dL and 13.8 g/dL and 13.0 g/dL and 13.5 g/dL
same,K,[4],4.6 mEq/L and 4.0 mEq/L and 4.4 mEq/L and 3.9 mEq/L
same,LYM,[4],3.64 K/uL and 4.96 K/uL and 3.49 K/uL and 5.13 K/uL
same,LYM %,[4],76.21% and 71.86% and 70.06% and 73.76%
same,Left Kidney,[4],0.108 gm and 0.133 gm and 0.138 gm and 0.125 gm and 0.75 % body wt and 0.77 % body wt and 0.79 % body wt and 0.78 % body wt
same,Liver,[4],0.807 gm and 0.969 gm and 0.914 gm and 0.843 gm and 5.06 % body wt and 5.63 % body wt and 5.23 % body wt and 5.24 % body wt
same,MCH,[4],15.4 Pg (2×) and 15.0 Pg and 15.2 Pg
same,MCHC,[4],29.6 g/dL (2×) and 30.6 g/dL and 30.0 g/dL
same,MCV,[4],51.9 fL and 50.4 fL and 50.5 fL and 50.6 fL
same,MONO,[4],0.08 K/uL and 0.24 K/uL and 0.09 K/uL and 0.12 K/uL
same,MONO %,[4],1.77% and 3.45% and 1.74% and 1.70%
same,MPV,[4],4.3 fL (3×) and 4.1 fL
